# Measured values: the NIST ThermoML archive (doi:10.1016/j.fluid.2017.05.024)
# ± gives the expanded uncertainty stated by the source.
# Assays:
# [1] = xn = mol fraction of the nth substance listed; settings: 298.15 K, 100 kPa, Liquid, Vibrating tube method
# [2] = 298.15 K, Liquid
smiles,measurement,setting,value
"OCCO [1,2-ethanediol] + CCCC[N+](CCCC)(CCCC)CCCC.[Br-]",mass density,[1]; x2 = 0,1112.1 ± 1.4 kg/m3
c1c[nH]cn1 [1H-imidazole] + CCCC[N+](CCCC)(CCCC)CCCC.[Br-],mass density,[1]; x2 = 0.333,1092.2 ± 1 kg/m3
CCCC[N+](CCCC)(CCCC)CCCC.[Br-] [tetrabutylammonium bromide] + OCC(O)CO,mass density,[1]; x1 = 0.2,1137.1 ± 1.3 kg/m3
CCCC[N+](CCCC)(CCCC)CCCC.[Br-] [tetrabutylammonium bromide] + OCCO,mass density,[1]; x1 = 0.2,1069.1 ± 1.2 kg/m3
OCC(O)CO [glycerol],mass density,"[2]; 101.33 kPa, Pycnometric method",1262 ± 2 kg/m3
"OCCO [1,2-ethanediol]",mass density,"[2]; 100 kPa, Vibrating tube method",1112.1 ± 1.4 kg/m3
